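These data come from cells grown in 96-well plates and exposed to compound for 48 hours at five concentrations. GI50 = concentration required for 50% inhibition of growth.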 Activity calls are given as the source filed them. Rule as the data show it: active = GI50 up to about 1.1 µM and inactive = higher.
How the values were obtained:
Assay in all cases: NCI tumour cell line growth inhibition, 48 h
HOP-92 = tested on: HOP-92
DMS-114 = tested on: DMS-114
SF-268 = tested on: SF-268
M14 = tested on: M14
UACC-62 = tested on: UACC-62
CAKI-1 = tested on: CAKI-1
TK-10 = tested on: TK-10
RXF 631 = tested on: RXF 631
EKVX = tested on: EKVX
SK-MEL-2 = tested on: SK-MEL-2
OVCAR-8 = tested on: OVCAR-8
A498 = tested on: A498
HCT-15 = tested on: HCT-15
UACC-257 = tested on: UACC-257
K562 = tested on: K562
SK-MEL-28 = tested on: SK-MEL-28
KM-20L2 = tested on: KM-20L2
OVCAR-5 = tested on: OVCAR-5
SN12C = tested on: SN12C
HCT-116 = tested on: HCT-116
MOLT-4 = tested on: MOLT-4
SNB-19 = tested on: SNB-19
HOP-62 = tested on: HOP-62
HCC 2998 = tested on: HCC 2998
SW-620 = tested on: SW-620
A549 = tested on: A549
786-0 = tested on: 786-0
NCI-H226 = tested on: NCI-H226
NCI-H460 = tested on: NCI-H460
NCI-H23 = tested on: NCI-H23
OVCAR-4 = tested on: OVCAR-4
RXF 393 = tested on: RXF 393
SNB-75 = tested on: SNB-75
LXFL 529 = tested on: LXFL 529
NCI-H522 = tested on: NCI-H522
OVCAR-3 = tested on: OVCAR-3
U-251 = tested on: U-251
CCRF-CEM = tested on: CCRF-CEM
SF-539 = tested on: SF-539
HT-29 = tested on: HT-29
DMS-273 = tested on: DMS-273
SR = tested on: SR
COLO 205 = tested on: COLO 205
SNB-78 = tested on: SNB-78
SK-OV-3 = tested on: SK-OV-3
IGROV-1 = tested on: IGROV-1
UO-31 = tested on: UO-31
Malme-3M = tested on: Malme-3M
M19-MEL = tested on: M19-MEL
RPMI-8226 = tested on: RPMI-8226
DLD-1 = tested on: DLD-1
KM12 = tested on: KM12
SF-295 = tested on: SF-295
ACHN = tested on: ACHN
HL-60 = tested on: HL-60
Hs-578T = tested on: Hs-578T
LOX IMVI = tested on: LOX IMVI
MDA-N = tested on: MDA-N
PC-3 = tested on: PC-3
DU-145 = tested on: DU-145
MCF7 = tested on: MCF7
T47D = tested on: T47D
MDA-MB-435 = tested on: MDA-MB-435
HOP-18 = tested on: HOP-18
BT-549 = tested on: BT-549
SK-MEL-5 = tested on: SK-MEL-5
MDA-MB-231 = tested on: MDA-MB-231
NCI/ADR-RES = tested on: NCI/ADR-RES
XF498 = tested on: XF498

O=C(c1ccccc1)C(c1ccccc1)C1(O)C(=O)Nc2ccc(Br)cc21 (stereo not drawn)
GI50 (HOP-92): 73.5 µM (inactive) | GI50 (DMS-114): 21.6 µM (inactive) | GI50 (SF-268): 72.6 µM (inactive) | GI50 (M14): 30.5 µM (inactive) | GI50 (UACC-62): 20.1 µM (inactive) | GI50 (CAKI-1): 99.1 µM (inactive) | GI50 (TK-10): > 100 µM (inactive) | GI50 (RXF 631): 33.7 µM (inactive) | GI50 (EKVX): 68.2 µM (inactive) | GI50 (SK-MEL-2): 61.1 µM (inactive) | GI50 (OVCAR-8): 52.8 µM (inactive) | GI50 (A498): > 100 µM (inactive) | GI50 (HCT-15): 60.1 µM | GI50 (UACC-257): 22.3 µM (inactive) | GI50 (K562): 18.9 µM (inactive) | GI50 (SK-MEL-28): 46.1 µM (inactive) | GI50 (KM-20L2): > 100 µM (inactive) | GI50 (OVCAR-5): > 100 µM (inactive) | GI50 (SN12C): 35.8 µM (inactive) | GI50 (HCT-116): 37.9 µM (inactive) | GI50 (MOLT-4): 23.6 µM (inactive) | GI50 (SNB-19): > 100 µM (inactive) | GI50 (HOP-62): 59.3 µM (inactive) | GI50 (HCC 2998): > 100 µM (inactive) | GI50 (SW-620): 72.1 µM (inactive) | GI50 (A549): > 100 µM (inactive) | GI50 (786-0): 71.9 µM (inactive) | GI50 (NCI-H226): 40.5 µM (inactive) | GI50 (NCI-H460): > 100 µM (inactive) | GI50 (NCI-H23): 50.4 µM (inactive) | GI50 (OVCAR-4): 32.8 µM (inactive) | GI50 (RXF 393): > 100 µM (inactive) | GI50 (SNB-75): 40.1 µM (inactive) | GI50 (LXFL 529): 19.8 µM (inactive) | GI50 (NCI-H522): 20.9 µM (inactive) | GI50 (OVCAR-3): 45.6 µM (inactive) | GI50 (U-251): 65 µM (inactive) | GI50 (CCRF-CEM): 17.7 µM (inactive) | GI50 (SF-539): 44.9 µM (inactive) | GI50 (HT-29): 52 µM (inactive) | GI50 (DMS-273): 31.6 µM (inactive) | GI50 (SR): 18.7 µM (inactive) | GI50 (COLO 205): > 100 µM (inactive) | GI50 (SNB-78): > 100 µM (inactive) | GI50 (SK-OV-3): > 100 µM (inactive) | GI50 (IGROV-1): 56.4 µM (inactive) | GI50 (UO-31): 63.8 µM (inactive) | GI50 (Malme-3M): 76.6 µM (inactive) | GI50 (M19-MEL): 15.4 µM (inactive) | GI50 (RPMI-8226): 17.9 µM (inactive) | GI50 (DLD-1): 48.2 µM (inactive) | GI50 (KM12): 95.3 µM (inactive) | GI50 (SF-295): > 100 µM (inactive) | GI50 (ACHN): > 100 µM (inactive) | GI50 (HL-60): 16.6 µM (inactive)

COc1ccc2c(c1)[C@@H](NC(C)=O)CCc1cc(OC)c(OC)c(OC)c1-2
GI50 (HOP-92): 0.0219 µM (active) | GI50 (DMS-114): 0.0118 µM (active) | GI50 (SF-268): 0.0154 µM (active) | GI50 (M14): 0.0166 µM (active) | GI50 (UACC-62): 0.0154 µM (active) | GI50 (CAKI-1): 0.0206 µM (active) | GI50 (TK-10): 2.54 µM (inactive) | GI50 (Hs-578T): 0.0169 µM (active) | GI50 (EKVX): 8.34 µM (inactive) | GI50 (SK-MEL-2): 0.0174 µM (active) | GI50 (OVCAR-8): 0.0157 µM (active) | GI50 (A498): 0.0143 µM (active) | GI50 (HCT-15): 0.015 µM | GI50 (LOX IMVI): 0.018 µM (active) | GI50 (UACC-257): 0.108 µM (active) | GI50 (K562): 0.0128 µM (active) | GI50 (SK-MEL-28): < 0.017 µM (active) | GI50 (KM-20L2): 0.0117 µM (active) | GI50 (MDA-N): 0.0128 µM (active) | GI50 (PC-3): 0.0251 µM (active) | GI50 (OVCAR-5): 1.5 µM (inactive) | GI50 (SN12C): 0.02 µM (active) | GI50 (HCT-116): 0.0148 µM (active) | GI50 (MOLT-4): 0.0206 µM (active) | GI50 (DU-145): 0.0185 µM (active) | GI50 (SNB-19): 0.0222 µM (active) | GI50 (HOP-62): 0.0216 µM (active) | GI50 (HCC 2998): 0.0174 µM (active) | GI50 (SW-620): 0.0172 µM (active) | GI50 (A549): 0.0176 µM (active) | GI50 (786-0): 0.019 µM (active) | GI50 (NCI-H226): 0.0891 µM (active) | GI50 (MCF7): 0.0463 µM (active) | GI50 (NCI-H460): 0.0168 µM (active) | GI50 (NCI-H23): 0.0143 µM (active) | GI50 (OVCAR-4): 9.84 µM (inactive) | GI50 (RXF 393): 0.0151 µM (active) | GI50 (SNB-75): 0.0258 µM (active) | GI50 (LXFL 529): < 0.0137 µM (active) | GI50 (NCI-H522): 0.013 µM (active) | GI50 (OVCAR-3): 0.0144 µM (active) | GI50 (U-251): 0.0173 µM (active) | GI50 (CCRF-CEM): 0.0398 µM (active) | GI50 (SF-539): 0.013 µM (active) | GI50 (HT-29): 0.0146 µM (active) | GI50 (T47D): > 100 µM (inactive) | GI50 (DMS-273): < 0.01 µM (active) | GI50 (SR): 0.0834 µM (active) | GI50 (COLO 205): 0.0135 µM (active) | GI50 (MDA-MB-435): 0.0132 µM (active) | GI50 (HOP-18): > 100 µM (inactive) | GI50 (SNB-78): 0.0107 µM (active) | GI50 (BT-549): 1.85 µM (inactive) | GI50 (SK-OV-3): 0.129 µM (active) | GI50 (IGROV-1): 0.0173 µM (active) | GI50 (UO-31): 0.0296 µM (active) | GI50 (Malme-3M): 0.0216 µM (active) | GI50 (M19-MEL): < 0.0154 µM (active) | GI50 (RPMI-8226): 0.0206 µM (active) | GI50 (SK-MEL-5): 0.019 µM (active) | GI50 (MDA-MB-231): 0.0228 µM (active) | GI50 (NCI/ADR-RES): 0.0198 µM (active) | GI50 (XF498): 0.0137 µM (active) | GI50 (DLD-1): < 0.0138 µM (active) | GI50 (KM12): 0.0131 µM (active) | GI50 (SF-295): 0.0151 µM (active) | GI50 (ACHN): 0.0179 µM (active) | GI50 (HL-60): < 0.012 µM (active)

CC1(Cc2ccccc2)NC(=S)NC1=O (stereo not drawn)
GI50 (HOP-92): 3.03 µM (inactive) | GI50 (DMS-114): > 100 µM (inactive) | GI50 (SF-268): > 100 µM (inactive) | GI50 (M14): > 100 µM (inactive) | GI50 (CAKI-1): > 100 µM (inactive) | GI50 (TK-10): > 100 µM (inactive) | GI50 (RXF 631): > 100 µM (inactive) | GI50 (EKVX): > 100 µM (inactive) | GI50 (SK-MEL-2): > 100 µM (inactive) | GI50 (OVCAR-8): > 100 µM (inactive) | GI50 (LOX IMVI): > 100 µM (inactive) | GI50 (UACC-257): > 100 µM (inactive) | GI50 (SK-MEL-28): > 100 µM (inactive) | GI50 (KM-20L2): > 100 µM (inactive) | GI50 (OVCAR-5): > 100 µM (inactive) | GI50 (SN12C): > 100 µM (inactive) | GI50 (SNB-19): > 100 µM (inactive) | GI50 (HOP-62): > 100 µM (inactive) | GI50 (HCC 2998): > 100 µM (inactive) | GI50 (SW-620): > 100 µM (inactive) | GI50 (A549): > 100 µM (inactive) | GI50 (786-0): > 100 µM (inactive) | GI50 (NCI-H226): > 100 µM (inactive) | GI50 (NCI-H460): > 100 µM (inactive) | GI50 (NCI-H23): > 100 µM (inactive) | GI50 (RXF 393): > 100 µM (inactive) | GI50 (SNB-75): > 100 µM (inactive) | GI50 (LXFL 529): > 100 µM (inactive) | GI50 (NCI-H522): > 100 µM (inactive) | GI50 (U-251): > 100 µM (inactive) | GI50 (SF-539): > 100 µM (inactive) | GI50 (HT-29): > 100 µM (inactive) | GI50 (DMS-273): > 100 µM (inactive) | GI50 (SR): > 100 µM (inactive) | GI50 (COLO 205): > 100 µM (inactive) | GI50 (HOP-18): 0.143 µM (active) | GI50 (SNB-78): > 100 µM (inactive) | GI50 (UO-31): > 100 µM (inactive) | GI50 (Malme-3M): > 100 µM (inactive) | GI50 (M19-MEL): > 100 µM (inactive) | GI50 (DLD-1): > 100 µM (inactive) | GI50 (KM12): > 100 µM (inactive) | GI50 (SF-295): > 100 µM (inactive) | GI50 (ACHN): > 100 µM (inactive) | GI50 (HL-60): > 100 µM (inactive)

Source: ChEMBL document CHEMBL1201862, “PubChem BioAssay data set” (2004)
